One assay has as its system IL-1β. Description: Skin photoaging (UVB) in BALB/c nude mice, serum IL-1β (Example II-54, Table II-33). In kind it is in vivo, mouse. Conditions: serum, UVB-irradiated BALB/c nude mice, 40 days.
For another assay, the system named is IL-6. Description: Skin photoaging (UVB) in BALB/c nude mice, serum IL-6 (Example II-54, Table II-34). Conditions: serum, UVB-irradiated BALB/c nude mice, 40 days. In kind it is in vivo, mouse.
For another assay, the system named is TNF-α. Description: Skin photoaging (UVB) in BALB/c nude mice, serum TNF-α (Example II-54, Table II-32). In kind it is in vivo, mouse. Conditions: UVB-irradiated BALB/c nude mice, 40 days.
For the next assay, the system named is Neocopyovirus. In kind it is in vivo. As to conditions: 1 mM; n=3.
The test system of a further assay is Hela cells. Description: Cell membrane fluidity (Laurdan fluorescence recovery) in Hela cells. In kind it is cell-based.
Another assay relates to 293T cells. Description: Cellular phagocytosis of DiD-loaded lipid vesicles (nano-drugs) by 293T cells (Example II-51, Table II-29). In kind it is cell-based. As to conditions: 293T cells pretreated 4 h, DiD lipid vesicles 2 h, n=3, untreated control 226.46 ± 1.26.
In assay [1] the test system is HPV pseudovirus (HPV6-GFP). In kind it is cell-based. As to conditions: 293FT cells pretreated 4 h, n=3.
For assay [2], the system named is SARS-CoV-2 pseudovirus (B.1.526.2). In kind it is cell-based.
The subject of another assay is rabies pseudovirus. In kind it is cell-based.

Where “and” joins values, the source holds several entries; their conditions need not be identical. Equal values may be shown once. Read-outs that look alike come from different tables or passages of the source.

Here are results for eight molecules from US20260166162A1, “CARBON CHAIN SUBSTANCE FOR REGULATING TRANSMEMBRANE TRANSPORT AND FLUIDITY OF CELL MEMBRANES, AND PREPARATION AND USE THEREOF” (priority 2022, published 2026).

As to `CCC=CCC=CCC=CCCCCCCCC(=O)OCC(N)C(=O)O` (centres unmarked) [Ser-linolenic acid], the IL-1β in the assay on IL-1β (30 μM smeared) is 62 pg/mL; with IL-1β (50 μM smeared), 53 pg/mL; in the assay with IL-1β (100 μM smeared), 58 pg/mL. For the same molecule, the figures for the IL-6 with IL-6 (30 μM smeared), in the assay with IL-6 (50 μM smeared) and with IL-6 (100 μM smeared) were 29 pg/mL, 33 pg/mL and 31 pg/mL, respectively. Also, the TNF-α was determined as 51 pg/mL with TNF-α (30 μM smeared), 49 pg/mL in the assay on TNF-α (50 μM smeared) and 47 pg/mL in the assay on TNF-α (100 μM smeared).
Take `CCC=CCC=CCC=CCC=CCC=CCCCC(=O)OCC(N)C(=O)O` (centres unmarked) [Serine-EPA]: in the assay with Neocopyovirus, the Fluorescence intensity is reported as 4.8 ± 0.96.
In the case of `CCCCCCCC(=O)O` [n-octanoic acid], the Fluorescence intensity in the assay on Neocopyovirus was found to be 5.8 ± 0.76; in the assay on 293T cells (2 nM), 157.30; in the assay with 293T cells (5 nM) it was 108.56; in the assay on 293T cells (10 nM), 83.70; in the assay with 293T cells (50 nM), 76.25; in the assay with 293T cells (100 nM) it was 106.35. Moreover, the Fluorescence intensity stood at 141.79 in the assay on 293T cells (1 uM), 124.85 in the assay with 293T cells (10 uM), 64.86 in the assay with 293T cells (50 uM) and 36.35 ± 6.23 with 293T cells (100 uM). Moreover, the “Fluorescence recovery rate %” value was found to be 65.57% with Hela cells (2 nM, 20 s); 66.78% with Hela cells (2 nM, 40 s); 66.54% in the assay with Hela cells (2 nM, 60 s); 67.22% with Hela cells (2 nM, 80 s); 66.75% in the assay with Hela cells (5 nM, 20 s); 67.05% in the assay on Hela cells (5 nM, 40 s). For the same molecule, the “Fluorescence recovery rate %” value in the assay with Hela cells (5 nM, 60 s) is 67.59%; in the assay on Hela cells (5 nM, 80 s), 66.98%; in the assay with Hela cells (10 nM, 20 s), 64.02%; in the assay on Hela cells (10 nM, 40 s), 65.23%; in the assay on Hela cells (10 nM, 60 s) it was 65.45%; in the assay on Hela cells (10 nM, 80 s) it was 66.51%. Moreover, the “Fluorescence recovery rate %” value worked out at 67.32% with Hela cells (50 nM, 20 s); 67.94% with Hela cells (50 nM, 40 s); 68.02% in the assay with Hela cells (50 nM, 60 s); 68.65% in the assay on Hela cells (50 nM, 80 s); 64.31% in the assay on Hela cells (50 μM, 20 s); 69.09% in the assay on Hela cells (50 μM, 40 s). The “Fluorescence recovery rate %” value came to 73.41% in the assay on Hela cells (50 μM, 60 s); 78.32% in the assay on Hela cells (50 μM, 80 s); 66.15% in the assay on Hela cells (100 μM, 20 s); 71.58% with Hela cells (100 μM, 40 s); 75.11% in the assay on Hela cells (100 μM, 60 s); 79.84% in the assay on Hela cells (100 μM, 80 s).
On to `O=C(O)CCCCCCC(=O)O` [octanedioic acid], for which the Fluorescence intensity in the assay with Neocopyovirus stood at 2.9 ± 0.22; in the assay with 293T cells (2 nM), 108.61 ± 5.68; with 293T cells (5 nM), 68.71 ± 4.36; in the assay on 293T cells (10 nM), 68.98 ± 8.56; with 293T cells (50 nM), 50.66 ± 5.66; with 293T cells (100 nM), 44.30 ± 6.35. Also, the Fluorescence intensity in the assay with 293T cells (1 uM) is given as 215.30 ± 5.36; with 293T cells (10 uM), 349.34 ± 9.48; with 293T cells (50 uM), 21.83 ± 1.85; in the assay on 293T cells (100 uM) it was 2.79 ± 0.22. Also, the “Fluorescence recovery rate %” value was 63.58% in the assay with Hela cells (2 nM, 20 s); 64.25% in the assay on Hela cells (2 nM, 40 s); 65.77% in the assay with Hela cells (2 nM, 60 s); 65.12% in the assay on Hela cells (2 nM, 80 s); 64.56% in the assay on Hela cells (5 nM, 20 s); 64.88% in the assay on Hela cells (5 nM, 40 s). For the same molecule, the “Fluorescence recovery rate %” value in the assay with Hela cells (5 nM, 60 s) amounted to 64.78%; with Hela cells (5 nM, 80 s), 65.09%; with Hela cells (10 nM, 20 s), 63.99%; in the assay with Hela cells (10 nM, 40 s), 64.23%; with Hela cells (10 nM, 60 s), 64.45%; in the assay with Hela cells (10 nM, 80 s), 64.66%. The “Fluorescence recovery rate %” value is reported as 66.09% with Hela cells (50 nM, 20 s); 66.42% in the assay on Hela cells (50 nM, 40 s); 66.89% in the assay with Hela cells (50 nM, 60 s); 67.94% in the assay on Hela cells (50 nM, 80 s); 64.41% in the assay on Hela cells (50 μM, 20 s); 70.05% in the assay with Hela cells (50 μM, 40 s). The “Fluorescence recovery rate %” value in the assay on Hela cells (50 μM, 60 s) is recorded as 74.65%; with Hela cells (50 μM, 80 s), 80.36%; with Hela cells (100 μM, 20 s), 65.77%; in the assay with Hela cells (100 μM, 40 s) it was 71.36%; in the assay with Hela cells (100 μM, 60 s) it was 76.81%; in the assay on Hela cells (100 μM, 80 s), 79.79%.
On to Adenosine-erucic acid [Adenosine-C22-1], for which the Fluorescence intensity is 112.01 ± 8.24 and 99.55 ± 5.66 in the assay with 293T cells (2 nM); 89.09 ± 4.19 and 46.06 ± 5.06 in the assay with 293T cells (5 nM); 278.16 ± 8.15 and 299.00 ± 23.21 with 293T cells (1 uM); 326.69 ± 10.13 and 171.00 ± 14.23 with 293T cells (10 uM). For the same molecule, the “Inhibition rate (%)” value worked out at 80.11 ± 3.66% in assay [1] (2 nM); 85.69 ± 4.23% in assay [1] (5 nM); 90.35 ± 4.69% in [1] (10 nM); 92.37 ± 3.35% in assay [1] (50 nM); 94.75 ± 1.67% in assay [1] (100 nM); 32.83 ± 2.37% in [1] (1 μM). The “Inhibition rate (%)” value in assay [1] (10 μM) was determined as 54.26 ± 1.83%; in assay [1] (50 μM), 91.84 ± 3.95%; in assay [1] (100 μM, negative value = promotes infection) it was 94.11 ± 2.69%; in assay [2] (0.002 µM), 50.54 ± 1.57%; in assay [2] (0.005 µM), 60.66 ± 1.59%; in assay [2] (0.01 µM) it was 58.34 ± 1.25%. Moreover, the “Inhibition rate (%)” value is 57.33 ± 1.58% in [2] (0.05 µM); 64.66 ± 8.23% in assay [2] (0.1 µM); -22.83 ± 0.93% in [2] (1 µM); -44.26 ± 1.26% in assay [2] (10 µM); 81.44 ± 0.54% in assay [2] (50 µM); 90.08 ± 1.21% in assay [2] (100 µM).
Take Ascorbic acid-eicosapentaenoic acid: the Fluorescence intensity with Neocopyovirus turned out to be 2.9 ± 0.68.
Same read-out and setting: the figure for Glucosamine-docosahexaenoic acid is 3.1 ± 0.65.
With Glucose-oleic acid, the Fluorescence intensity with 293T cells (2 nM) is 102.16 ± 8.65; in the assay with 293T cells (5 nM), 92.37 ± 4.56; with 293T cells (10 nM), 65.99 ± 6.23; in the assay on 293T cells (100 nM) it was 71.02 ± 4.02; in the assay with 293T cells (1 uM), 436.71 ± 15.66; in the assay on 293T cells (10 uM) it was 216.29 ± 5.24. Also, the Fluorescence intensity was found to be 42.89 ± 2.32 in the assay with 293T cells (50 uM) and 26.41 ± 5.32 in the assay with 293T cells (100 uM). Further, the “Inhibition rate (%)” value was 50.11 ± 3.11% in the assay on rabies pseudovirus (0.002 µM); 65.69 ± 6.69% in the assay on rabies pseudovirus (0.005 µM); 80.35 ± 2.06% in the assay with rabies pseudovirus (0.01 µM); 72.37 ± 3.37% with rabies pseudovirus (0.05 µM); 71.05 ± 2.54% with rabies pseudovirus (0.1 µM); -14.84 ± 1.54% with rabies pseudovirus (1 µM). Besides, the figures for the “Inhibition rate (%)” value with rabies pseudovirus (10 µM), in the assay on rabies pseudovirus (50 µM) and in the assay on rabies pseudovirus (100 µM) were -33.5 ± 2.54%, 70.04 ± 5.07% and 80.21 ± 5.30%, respectively.
